“And” between values parts separate entries of the source, which are not always exact repeats. Equal entries are not always repeated. Marks after values point to notes of the source that are not given here.
What was measured:
[1] = tested on: AVO-EM in irradiated MCF-7 cells; assay: Electron microscopy of AVO-EM; format: cell-based, human; conditions: 3-methyladenine 5 mM; 10 Gy; without it 94%
Procedure: Cell processing for electron microscopy and staining with N-(3-(2,4-dinitrophenyl)-N-(3-aminopropyl))methylamine dihydrochloride (DAMP; Molecular Probes, Eugene, Oreg.) was performed as set forth in Anderson et al., 1984, Proc. Natl. Acad. Sci. U.S.A. 81:4838-4842 and Dunn et al., 1990, J. Cell Biol. 110:1935-1945. The fraction of the cytoplasmic volume occupied by AVO (fractional volume of AVO) was quantified from electron micrographs according to Dunn and Lenk et al., (Dunn et al., 1990, J. Cell Biol. 110:1935-1945; Lenk et al., 1992, J. Cell Biol. 118:301-308). Digital Images of the micrographs were obtained using an Epson ES-1200S flat bed scanner with Adobe Photoshop version 5. The fractional volume was calculated with Image Pro Plus Version 3 and expressed as a percentage of the total cytoplasmic volume.

[2] = tested on: acidic vesicular organelles (AVO) in MCF-7 cells; assay: Mean red/green fluorescence ratio in acridine orange stained cells by flow cytometry; format: cell-based, human
Procedure: bFGF was added to cultures of MCF-7 cells at 10 ng/ml for 48 hours. TNF was added at 2.3 nM for 48 hours. PMA was added for 1 hour at a concentration of 30 nM, followed by rinsing of the cells and incubation for an additional 48 hours.
Cell staining was performed according to standard techniques (Arvan et al., 1984, J. Bio. Chem. 259:13567-13572; Mains and May, 1988, J. Biol. Chem. 263:7887-7894; Traganos and Darzynkiewicz, Methods in Cell Biology 41:185-194, Academic Press). Acridine orange (Polysciences, Warrington, Pa.) was added to a final concentration of 1 μg/ml for 15 minutes. Bafilomycin A1 (Sigma Chemical Co., St. Louis, Mo.) was dissolved in DMSO and added to the cells 30 minutes prior to the addition of acridine orange. LysoSensor Blue DND-167 (Molecular Probes, Eugene, Oreg.) at a final concentration of 10 μM was added for 8 minutes. Pictures were obtained with a fluorescence microscope (Olympus BH-2 RFCA), equipped with a mercury-100 W lamp, 490 nm band pass blue excitation filters, 500 nm dichroic mirror and a 515 nm long pass barrier filter. Images of control and irradiated cells were recorded on Kodak Elite II 100 ASA film for color slides by 4 seconds exposure.
In acridine orange stained cells the cytoplasm and nucleolus fluoresce bright green and dim red, while acidic compartments fluoresce bright red (Mains and May, 1988, J. Biol. Chem. 263:7887-7894; Traganos and Darzynkiewicz, Methods in Cell Biology Vol. 41, pp. 185-194, Academic Press). The intensity of the red fluorescence is proportional to the degree of acidity and/or the volume of the cellular acidic compartment. Therefore, by comparing the mean red/green fluorescence ratio within different cell populations, a change in the degree of acidity and/or the fractional volume of the cellular acidic compartment could be measured. Cells were stained with acridine orange for […], removed from the plate with trypsin-EDTA and collected in phenol red-free growth medium. Green (510-530 nm) and red (>650 nm) Fluoresence emission from 10,000 cells illuminated with blue (488 nm) excitation light was measured with a FACSCalibur from Becton Dickinson (San Jose, Calif.) using CellQuest software. The red to green fluorescence ratio for individual cells was calculated using FlowJo software (TREE STAR, Inc., San Carlos, Calif.). To control for possible effect of trypsinization on the measured red to green fluorescence ratio, the ratios were compared by flow cytometry with those obtained with a Laser Scanning Microscope (LSM510 from Zeiss). Stained cells, grown on cover glass, were illuminated with a 488 nm argon laser beam. The red (>650 nm) to green (505-545 nm) fluorescence ratio of an entire image was obtained using software LSM 510 version 2.01 SP2. These measurements yielded similar results to those obtained with flow cytometry. All determinations of red to green fluorescence ratio reported in this section were obtained via flow cytometry.

[3] = tested on: MCF-7 (human breast adenocarcinoma); assay: Clonogenic survival (surviving fraction) of MCF-7 cells after radiation or chemotherapeutic agent; format: cell-based
[4] = tested on: LoVo (human colon adenocarcinoma); assay: Clonogenic survival (surviving fraction) of LoVo cells after radiation or chemotherapeutic agent; format: cell-based
Procedure: (§1) MCF-7 (human breast adenocarcinoma), LoVo (human colon adenocarcinoma) and LNCaP (human prostate carcinoma) were obtained from the American Type Culture Collection. Cells were maintained as described in Paglin et al., 1997, Biochem. Biophs. Res. Comm. 237:678-684). Irradiation was carried out 48 hours post-plating (T0) at room temperature using a Cs-137 irradiator (Sheperd Mark-I, model 68, SN643) at a dose rate of 2.43-2.32 Gy/min. Bovine aortic endothelial cells were grown and treated with H2O2 as described in Haimovitz-Friedman et al., 1994, J. Exp. Med. 180:525-535 and Verhij et al., 1996, Nature 380:75-79. Phorbol 12-myristate 13-acetate (PMA; Alexis Biochemicals Corp., San Diego, Calif.) was dissolved in dimethyl sulfoxide (DMSO) and added to cells for the duration of one hour. The final DMSO concentration was 0.03%. The cells were then rinsed with warm growth medium before being returned to the incubator for an additional 48 hours.
(§2) Cells were plated in growth medium at a density of 30-90 cells per square centimeter and irradiated 22 hours later. Each experimental condition was done in quintet or triplicate. Cells were irradiated at room temperature in Cs-137 Irradiator (Sheperd Mark-I, Model 68, SN 643) at a rate of 2.43-2.32 Gy/min. […] For determination of their red to green ratio, colonies were processed as described above. For determination of surviving fractions cells were stained with crystal violet and colonies containing 50 cells or more were counted with a dissecting microscope. The surviving fraction was defined as the ratio between the plating efficiencies of irradiated and non-irradiated cells and was calculated at each dose level according to Hall and Phill (1994, […] for the Radiologist, 4th Edition, J. Lippincott Co., Philadelphia).

[5] = tested on: MCF-7 (human breast adenocarcinoma); assay: Clonogenic survival (surviving fraction) of MCF-7 cells after radiation or chemotherapeutic agent; format: cell-based; conditions: for Surviving Fraction 100 nM Adriamycin / Surviving Fraction: Table 16
Procedure: as §1, §2

[6] = tested on: AVO in MCF-7 cells; assay: Vital staining with acridine orange, fluorescence microscopy; format: cell-based, human; conditions: pre-incubation with 300 μM chloroquine
Procedure: Acridine orange (Polysciences, Warrington, Pa.) was added to a final concentration of 1 μg/ml for 15 minutes. […] Pictures were obtained with a fluorescence microscope (Olympus BH-2 RFCA), equipped with a mercury-100 W lamp, 490 nm band pass blue excitation filters, 500 nm dichroic mirror and a 515 nm long pass barrier filter. Images of control and irradiated cells were recorded on Kodak Elite II 100 ASA film for color slides by 4 seconds exposure.

## Cn1cnc(N)c2ncnc1-2 [3-methyladenine]
[1]
  fraction of cells containing AVO-EM: 22%
[2]; 3-methyladenine 5 mM, 48 hours following radiation with 10 Gy, without it 1.77±0.01, n=3
  red to green ratio: 1.15±0.01

## COc1cccc2c1C(=O)c1c(O)c3c(c(O)c1C2=O)C[C@@](O)(C(=O)CO)C[C@@H]3O[C@H]1C[C@H](N)[C@H](O)[C@H](C)O1 [Adriamycin]
[3]; Table 15, 100 nM adriamycin alone (Bafilomycin 0 nM)
  survival, column Adriamycin: 0.88 ± 0.08
[4]; Adriamycin 50 nM alone
  Surviving Fraction Without Bafilomycin: 0.84 ± 0.01
[4]; Adriamycin 100 nM alone
  Surviving Fraction Without Bafilomycin: 0.77 ± 0.01
[4]; Adriamycin 150 nM alone
  Surviving Fraction Without Bafilomycin: 0.47 ± 0.02
[4]; Table 17, Adriamycin 100 nM alone, 48 hours
  survival, Adriamycin 100 nM: 0.94 ± 0.1
[5]; MCF-7, 100 nM Adriamycin alone (Salicilyhalamide 0 nM)
  Surviving Fraction 100 nM Adriamycin: 0.88 ± 0.08

## C[C@]12CC[C@@H]3c4ccc(O)cc4CC[C@H]3[C@@H]1CC[C@@H]2O [Estradiol]
[2]; Estradiol 10^−9 M alone
  Fold increase of Red:Green: 1 fold
[2]; estradiol 10^−9 M with tamoxifen, Table 23
  inhibition of the effect of tamoxifen on appearance of acidic vesicular organelles: 50%

## COc1cc([C@@H]2c3cc4c(cc3[C@@H](O[C@@H]3O[C@@H]5CO[C@@H](C)O[C@H]5[C@H](O)[C@H]3O)[C@H]3COC(=O)[C@H]23)OCO4)cc(OC)c1O [Etoposide]
[4]; Table 19, Etoposide 0.05 μg/ml alone
  cell survival (head of column empty): 0.78 ± 0.05
[5]; Table 18, MCF-7, Etoposide 0.05 μg/ml alone
  cell survival (head of column empty): (0.79; 0.77) 0.78*

## CCCCCCCCCCCCCC(=O)O[C@@H]1[C@@H](C)[C@@]2(O)[C@@H](C=C(CO)C[C@]3(O)C(=O)C(C)=C[C@@H]23)[C@@H]2C(C)(C)[C@]12OC(C)=O [PMA, Phorbol 12-myristate 13-acetate]
[2]; MCF-7, PMA 30 nM for 1 hour, rinsed, additional 48 hours
  Fold Increase in Red: Green: 1.7±0.3 fold and 1.7 ± 0.3 (n = 3) fold

## CO[C@H]1C[C@@H]2CC[C@@H](C)[C@@](O)(O2)C(=O)C(=O)N2CCCC[C@H]2C(=O)O[C@H]([C@H](C)C[C@@H]2CC[C@@H](O)[C@H](OC)C2)CC(=O)[C@H](C)/C=C(\C)[C@@H](O)[C@@H](OC)C(=O)[C@H](C)C[C@H](C)/C=C/C=C/C=C/1C [Rapamycin, rapamycin]
[2]; Table 21, MCF-7, 20 nM rapamycin
  Fold Increase in Red:Green 48 hrs: 1.96 fold
[2]; Table 21, MCF-7, 50 nM rapamycin
  Fold Increase in Red:Green 48 hrs: 2.31 fold
[2]; Table 22, Rapamycin 10 nM
  Fold Increase in Red:Green 24 hrs: 1.7 fold
  Fold Increase in Red:Green 48 hrs: 1.6 fold
[2]; Table 22, Rapamycin 20 nM
  Fold Increase in Red:Green 24 hrs: 1.7 fold
  Fold Increase in Red:Green 48 hrs: 1.4 fold

## CC/C=C\C=C/C(=O)N/C=C/C[C@H]1C[C@@H](O)[C@@H](C)C/C=C/Cc2cccc(O)c2C(=O)O1 [Salicylihalamide A]
[3]; 50 nM salicylihalamide A in combination with 100 nM Adriamycin
  decrease of survival: 25%
[5]; 25 nM salicylihalamide A, 3 Gy
  decrease of survival of irradiated cells: 30%
[5]; Salicylihalamide A 12.5 nM
  Surviving Fraction 0 Gy: 1.14 ± 0.07
[5]; Salicylihalamide A 12.5 nM, 3 Gy
  Surviving Fraction 3 Gy: 0.38 ± 0.03
[5]; Salicylihalamide A 25 nM
  Surviving Fraction 0 Gy: 0.92 ± 0.08
[5]; Salicylihalamide A 25 nM, listed as salicylihalamide A
  Surviving Fraction 0 Gy: did not significantly affect
[5]; Salicylihalamide A 25 nM, 3 Gy
  Surviving Fraction 3 Gy: 0.32 ± 0.03
[5]; Salicylihalamide A 50 nM
  Surviving Fraction 0 Gy: 0.72 ± 0.09
[5]; Salicylihalamide A 50 nM, 3 Gy
  Surviving Fraction 3 Gy: 0.22 ± 0.04
[5]; Salicylihalamide A 100 nM
  Surviving Fraction 0 Gy: 0.53 ± 0.03
[5]; Salicylihalamide A 100 nM, 3 Gy
  Surviving Fraction 3 Gy: 0.11 ± 0.02
[5]; MCF-7, Salicilyhalamide 25 nM + 100 nM Adriamycin
  Surviving Fraction 100 nM Adriamycin: 0.79 ± 0.05
[5]; MCF-7, Salicilyhalamide 25 nM alone
  Surviving Fraction: 1.03 ± 0.03
[5]; MCF-7, Salicilyhalamide 50 nM + 100 nM Adriamycin
  Surviving Fraction 100 nM Adriamycin: 0.66 ± 0.04
[5]; MCF-7, Salicilyhalamide 50 nM alone, listed as Salicilyhalamide
  Surviving Fraction: 0.95 ± 0.01
[5]; MCF-7, Salicilyhalamide 50 nM alone, listed as salicylihalamide A
  Surviving Fraction: minimal effect
[5]; MCF-7, Salicilyhalamide 100 nM + 100 nM Adriamycin
  Surviving Fraction 100 nM Adriamycin: 0.57 ± 0.01
[5]; MCF-7, Salicilyhalamide 100 nM alone
  Surviving Fraction: 0.78 ± 0.04

## CC/C(=C(\c1ccccc1)c1ccc(OCCN(C)C)cc1)c1ccccc1 [Tamoxifen]
[2]; Tamoxifen 2 × 10^−6 M
  Fold increase of Red:Green: 1.6 fold
[2]; Tamoxifen 2 × 10^−6 M + Estradiol 10^−9 M
  Fold increase of Red:Green: 1.33 fold
[2]; Tamoxifen 10^−6 M
  Fold increase of Red:Green: 1.5 fold
[2]; Tamoxifen 10^−6 M + Estradiol 10^−9 M
  Fold increase of Red:Green: 1.25 fold

## CCN(CC)CCCC(C)Nc1ccnc2cc(Cl)ccc12 (stereo not drawn) [chloroquine]
[6]
  acridine orange accumulation in the AVO: inhibited acridine orange accumulation

## bFGF: cytokine tested as inducer of acidic organelle formation
[2]; MCF-7, bFGF 10 ng/ml for 48 hours
  Fold Increase in Red: Green: 2.23 ± 0.18 (n = 3) fold

## z-VAD-fmk
[2]; z-VAD-fmk 50 μM added 1 hour before irradiation, 10 Gy, 24 hours following irradiation
  mean red to green fluorescence ratio: 2.5 ± 0.04
[2]; z-VAD-fmk 50 μM added 1 hour before, unirradiated, 24 hours
  mean red to green fluorescence ratio: 1.4 ± 0.07
